Experimental findings from ChEMBL document CHEMBL1201862, “PubChem BioAssay data set” (2004) are described below.

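Growth conditions: 96-well plates. Treatment: test compound, 48 hours, 5 concentrations. Analysis: linear interpolation between bracketing concentrations; unreached endpoints set to highest concentration. Here, GI50 denotes the concentration required for 50% inhibition of growth.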 Calls of active or inactive are those of the source. Cut-off read from the data, not from the text of the source: active = GI50 up to about 1.1 µM and inactive = higher. A value given as a limit tells only on which side of the number the result lay.

Test systems include ACHN; COLO 205; EKVX; HCC 2998; HCT-15; Hs-578T; IGROV-1; K562; KM12; MDA-MB-231; Malme-3M; NCI-H23; RXF 393; SF-295; SF-539; SK-MEL-5; SK-OV-3; SR; MDA-MB-435; RPMI-8226.
Common to all, as to experiment: NCI anticancer screen, dose series, 48 h

Turning to `O=c1n(-c2ccccc2)c(=O)n2c(-c3ccccc3)c(-c3ccccc3)n12`, the GI50 with ACHN was > 100 µM (inactive); in the test with COLO 205 it was 91.6 µM (inactive); in the test with EKVX, > 100 µM (inactive); in the test with HCC 2998, 77.8 µM (inactive); in the test with HCT-15, 82.4 µM; in the test with Hs-578T, > 100 µM (inactive). The GI50 is > 100 µM (inactive) with IGROV-1; 80.9 µM (inactive) with K562; > 100 µM (inactive) with KM12; > 100 µM (inactive) in the test on MDA-MB-231; > 100 µM (inactive) in the test on Malme-3M; > 100 µM (inactive) in the test with NCI-H23. In addition, the GI50 was 15.9 µM (inactive) in the test on RXF 393; 84.1 µM (inactive) in the test on SF-295; > 100 µM (inactive) in the test on SF-539; > 100 µM (inactive) in the test with SK-MEL-5; > 100 µM (inactive) in the test on SK-OV-3; 27 µM (inactive) in the test with SR.
In the case of `NCCCCNCCCNC(=O)c1csc(-c2nc(CCN)sc2Cl)n1`, the GI50 in the test with ACHN is > 100 µM (inactive); in the test with COLO 205 it was > 100 µM (inactive); in the test with EKVX, > 100 µM (inactive); with HCC 2998 it was 70.8 µM (inactive); in the test with HCT-15 it was above 100 µM; with Hs-578T, > 100 µM (inactive). For the same compound, the GI50 with IGROV-1, with K562, in the test on KM12, in the test with MDA-MB-435, with Malme-3M and in the test on NCI-H23 was > 100 µM (inactive) throughout. For the same compound, the GI50 with RPMI-8226, with RXF 393, in the test with SF-295, with SF-539, in the test with SK-MEL-5 and in the test with SK-OV-3 was > 100 µM (inactive) each time.
Take `C[Si](C)(OCCS(=O)(=O)O)OC(=C1S(=O)(=O)OCCOS1(=O)=O)c1cccc2ccccc12`: the GI50 is > 100 µM (inactive) in the test with ACHN; > 100 µM (inactive) in the test on COLO 205; > 100 µM (inactive) in the test with EKVX; 90.6 µM (inactive) in the test with HCC 2998; above 100 µM in the test on HCT-15; 72.9 µM (inactive) with IGROV-1. The GI50 was 84.5 µM (inactive) in the test on K562; > 100 µM (inactive) in the test on KM12; > 100 µM (inactive) in the test with MDA-MB-231; > 100 µM (inactive) in the test on MDA-MB-435; > 100 µM (inactive) in the test on Malme-3M; > 100 µM (inactive) with NCI-H23. For the same compound, the GI50 in the test on RPMI-8226 was > 100 µM (inactive); in the test on RXF 393, 37.2 µM (inactive); with SF-295, > 100 µM (inactive); in the test on SF-539, > 100 µM (inactive); in the test with SK-MEL-5, > 100 µM (inactive); with SR, > 100 µM (inactive).
As to `CC(C)(C)OC(=O)N(CCCN)CCCCN(CCCN)C(=O)OC(C)(C)C`, the GI50 in the test on ACHN was > 100 µM (inactive); in the test on COLO 205, > 100 µM (inactive); in the test with EKVX, > 100 µM (inactive); with HCC 2998, > 100 µM (inactive); in the test on HCT-15, above 100 µM; in the test on Hs-578T, > 100 µM (inactive). Further, the GI50 in the test on IGROV-1, in the test on K562, in the test with KM12, with MDA-MB-435, in the test on NCI-H23 and in the test with RPMI-8226 was > 100 µM (inactive) each time. Besides, the GI50 with RXF 393, with SF-295, in the test on SF-539, in the test on SK-MEL-5, in the test with SK-OV-3 and in the test on SR was > 100 µM (inactive) in each case.
